Data published in patent US6331570A, “Active enantiomer of RARγ-specific agonist” (Bristol-Myers Squibb Company, priority 1999, dated 2001).

Columns and labels:
[1] = prior art / general statement; cited from earlier work
papillomas = test: two-stage system of mouse skin carcinogenesis (DMBA initiator, TPA promoter); type: in vivo; conditions: i.p.
[2] = 13-cis-retinoic acid 50 mg/kg (dose from text), 10 weeks monitoring

SMILES: CC1=C(/C=C/C(C)=C/C=C/C(C)=C\C(=O)O)C(C)(C)CCC1 [13-cis-retinoic acid]
- liver toxicity [1]: adverse side-effects on long-term use such as liver toxicity
- number and size of papillomas (papillomas; 50 mg/kg, 10 weeks): inactive
- Tumor Burden (mean tumor size per mouse) (papillomas; [2]): 6.8 mm^3
- Tumor Incidence (% of mice with tumors) (papillomas; [2]): 80%
